Positions count from the first letter of the chain named. Where a SMILES comes first, the peptide text is derived from it.
Key:
[1] = biological target: T1, murine Langerin (mLang) CRD wild type (Mus musculus, UniProt Q8VBX4); assay: 1H-15N HSQC NMR titration, mLang CRD wild type; format: binding; details: from CSP trajectories, 298 K; for Kd: pH 6, read-out: 15N HSQC KD mLang (Murine-WT); for 15N HSQC KD mLang (Murine-WT): pH 6
T1 construct: 194 - 331, were cloned from a codon-optimized Langerin gene; His-tag (N); made in house; host or cells: E. coli BL21
T1 sequence (Q8VBX4 194-331): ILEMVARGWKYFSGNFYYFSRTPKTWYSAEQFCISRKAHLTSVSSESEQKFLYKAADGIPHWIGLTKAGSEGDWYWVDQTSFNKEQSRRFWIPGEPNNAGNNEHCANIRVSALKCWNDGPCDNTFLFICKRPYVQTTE
Method: (§1) Protein expression and purification hLang and mLang CRD wild type and all the mutants, ranging from amino acids 193 - 328 and 194 - 331, were cloned from a codon-optimized Langerin gene for bacterial expression (GenScript, Piscataway, NJ, USA) into a pET-28a vector (GenScript, Piscataway, NJ, USA) carrying an N-terminal His-tag and a T7 promoter. All constructs were expressed in E. coli BL21 (ThermoFisher Scientific, Waltham, MA, USA) in LB medium or in M9 medium at 37 °C. Protein expression was induced by adding 1 mM IPTG (isopropyl β-D-1-thiogalactopyranoside) at an OD600 between 0.7 - 1 and were grown overnight at 37 °C. Bacteria were harvested by centrifugation at 4000 g for 30 mins. Cells were lysed in lysis buffer (50 mM Tris, 150 mM NaCl, 10 mM MgCl2, 0.1% Tween-20, pH 8) with 1 mg/mL lysozyme (Sigma Aldrich, St. Louis, MO, USA) and 100 μg/mL DNase I (Applichem, Darmstadt, Germany) for at least 3 h at room temperature or 4 °C overnight or sonicated 1 h with amplitude 55%. Inclusion bodies were harvested by centrifugation at 15000 g […]
(§2) Inclusion bodies were washed twice with lysis buffer and ultrapure water to remove cell debris and soluble proteins. Then inclusion bodies were denatured with 20 mL of denaturation buffer (6 M guanidinium hydrochloride in 100 mM Tris (pH 8)) with 0.01% β -mercaptoethanol for at least 1 h at 37 °C, shaking at 220 rpm. The supernatant was slowly diluted 1:10 with CTL refolding buffer (0.4 M L-arginine in 50 mM Tris, 20 mM NaCl, 0.8 mM KCl, pH 8.3) with 1 mM reduced glutathione (GSH) and 0.1 mM oxidized glutathion e (GSSG) while stirring at 4 °C for at least 48 h after centrifugation (15,000 x g, 90 min, 4 °C). The refolded protein solution was dialyzed against 5 L TBS buffer (50 mM Tris, 150 mM NaCl, 5 mM CaCl 2) and then centrifuged to remove precipitated protein (15,000 x g, 90 min, 4 °C). The supernatant was purified by Ni -NTA agarose […]
(§3) affinity chromatography (Thermo Fisher) and the fractions of the elution were pooled and dialyzed against MES buffer (25 mM MES, 40 mM NaCl, 5 mM CaCl2, pH 6). Precipitated protein was removed by centrifugation (15,000 x g, 90 min, 4 °C) and the supernatant was used for experiments. We then concentrated protein with 5 - 6 mg/mL as the final concentration.
(§4) 1H-15N HSQC NMR measurements and backbone resonance assignment
(§5) NMR assignment and 15N-HSQC NMR for CSP plot and KD calculations were performed on a 700 MHz Bruker Advance III spectrometer (Bruker, Billerica, MA, USA) equipped with a PRODIGY probe. For mLang CRD backbone assignment, we performed a series of standard triple resonance experiments HNCA, HNCACB, HN(CO)CA and HN(CO)CACB as Hanske et al. described.1 Data was analyzed by using CcpNmr 2.5.1.2 In total, 88% of the residues were unambiguously assigned.
(§6) Most of the unassigned residues are prolines or residues in the mobile loops near the CBS, as reported for similar protein for example human Langerin.1 For the sample preparation, we used 300 µM 15N and 13C labeled protein, which is in 25 mM MES, 40 mM NaCl, 5 mM CaCl2, pH 6 containing 100 μM DSS, 0.05% NaN3, and 10% D2O buffer. 1H–15N HSQC NMR titrations experiments were performed with 100 μM of Langerin CRD containing 50 μM 4,4-dimethyl-4-silapentane-1-sulfonic acid (DSS) as an internal reference, and 10% D2O. 128 increments and 4 - 16 transients were recorded at 298 K, depending on the protein concentration and the machine implemented. NMR titration data were processed and analyzed, as previously done in Hanske et al. described (2016).1 The protein sample was added stepwise for titration of the thiazolopyrimidine derivatives or peptides until the most solubility tolerance was reached as the final concentration. Step size according to expected KD varied.

[2] = biological target: T2, human Langerin (hLang) CRD wild type (Homo sapiens, UniProt Q9UJ71); assay: 1H-15N HSQC NMR titration, hLang CRD wild type; format: binding; details: for Kd / 15N HSQC KD hLang (Human-WT): hLang CRD wild type, from CSP trajectories, 298 K, pH 6; for Kd: read-out: 15N HSQC KD hLang (Human-WT)
T2 construct: ranging from amino acids 193 - 328 and; His-tag (N); made in house; host or cells: E. coli BL21
T2 sequence (Q9UJ71 193-328): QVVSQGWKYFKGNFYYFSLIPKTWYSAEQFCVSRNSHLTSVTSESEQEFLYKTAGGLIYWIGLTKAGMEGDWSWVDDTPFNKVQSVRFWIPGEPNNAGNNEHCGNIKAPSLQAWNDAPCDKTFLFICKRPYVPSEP
Method: as §1, §2, §3, §4, §5, §6

hLang M260S-S265Y = biological target: T3, hLang M260S-S265Y (Homo sapiens, UniProt Q9UJ71, M260S/S265Y); assay: 1H-15N HSQC NMR titration, hLang CRD double mutant; format: binding; details: for Kd: hLang CRD M260S-S265Y mutant
T3 construct: ranging from amino acids 193 - 328 and; His-tag (N); made in house; host or cells: E. coli BL21
T3 sequence (Q9UJ71 193-328 M260S/S265Y): as the sequence (Q9UJ71 193-328) above, with M68S, S73Y counted along it
Method: as §1
Inclusion bodies were washed twice with lysis buffer and ultrapure water to remove cell debris and soluble proteins. […]
as §5
Most of the unassigned residues are prolines or residues in the mobile loops near the CBS, as reported for similar protein for example human Langerin.1 For the sample preparation, we used 300 µM 15N and 13C labeled protein, which is in 25 mM MES, 40 mM NaCl, 5 mM CaCl2, pH 6 containing 100 μM DSS, 0.05% NaN3, and 10% D2O buffer. […] 128 increments and 4 - 16 transients were recorded at 298 K, depending on the protein concentration and the machine implemented. […]

mLang S263M-Y268S = biological target: T4, mLang S263M-Y268S (Mus musculus, UniProt Q8VBX4, S263M/Y268S); assay: 1H-15N HSQC NMR titration, mLang CRD double mutant; format: binding, murine; details: for Kd: mLang CRD S263M-Y268S mutant, read-out: 15N HSQC KD Murine-S263M-Y268S
T4 construct: 194 - 331, were cloned from a codon-optimized Langerin gene; His-tag (N); made in house; host or cells: E. coli BL21
T4 sequence (Q8VBX4 194-331 S263M/Y268S): T1 sequence (Q8VBX4 194-331) with S70M, Y75S
Method: as §1
Inclusion bodies were washed twice with lysis buffer and ultrapure water to remove cell debris and soluble proteins. Then inclusion bodies were denatured with 20 mL of denaturation buffer (6 M guanidinium hydrochloride in 100 mM Tris (pH 8)) with 0.01% β -mercaptoethanol for at least 1 h at 37 °C, shaking at 220 rpm. […]
as §5
as §6, with “1H–15N HSQC NMR titrations experiments were performed with 100 μM of Langerin CRD containing 50 μM 4,4-dimethyl-4-silapentane-1-sulfonic acid (DSS) as an internal reference, and 10% D2O.” left out, “Step size according to expected KD varied.” left out

SMILES | Kd [1] [µM] | Kd [2] [µM] | 15N HSQC KD mLang (Murine-WT) [1] | 15N HSQC KD hLang (Human-WT) [2] | also measured
C[C@H](N)C(=O)N[C@@H](Cc1c[nH]c2ccccc12)C(=O)N[C@@H](CO)C(=O)O [AWS] (H-Ala-Trp-Ser-OH) | 1600 ± 300 | 2400 ± 940 |  |  | 
COc1ccccc1CNC(=O)c1cnc2sccn2c1=O [Compound 2] | 160 ± 60 |  | micromolar affinity | not detectable and no detectable binding and nb | Kd (hLang M260S-S265Y): 450 ± 280 µM; Kd (mLang S263M-Y268S): 1740 ± 160 µM; fold decrease in binding affinity to mLang S263M-Y268S compared to WT (mLang S263M-Y268S; mutant vs WT): 10 fold
O=C(NCc1ccc2c(c1)OCO2)c1c(O)nc2sccn2c1=O [Compound 7] | 280 ± 160 |  | micromolar affinity | no detectable binding and nb | 
C[C@H](NC(=O)[C@@H](N)CO)C(=O)N[C@@H](Cc1c[nH]c2ccccc12)C(=O)N[C@@H](CO)C(=O)O [SAWS] (H-SAWS-OH) | 670 ± 230 | 820 ± 130 | high-micromolar affinity | high-micromolar affinity | 
N[C@@H](CO)C(=O)N[C@@H](CO)C(=O)N[C@@H](Cc1c[nH]c2ccccc12)C(=O)N[C@@H](CO)C(=O)O [SSWS] (H-SSWS-OH) | 460 ± 30 |  |  |  | 

Continued, in another order:

Kd [1] [µM] | Kd [2] [µM] | 15N HSQC KD mLang (Murine-WT) [1] | 15N HSQC KD hLang (Human-WT) [2] | SMILES | also measured
1800 ± 600 | 130 ± 40 |  |  | O=C(O)c1cnc2sccn2c1=O [Compound 1] | Kd (hLang M260S-S265Y): 340 ± 220 µM; fold decrease in affinity to hLang M260S-S265Y compared to WT (hLang M260S-S265Y; mutant vs WT): 3 fold; Kd (mLang S263M-Y268S): 480 ± 340 µM; fold increase in affinity for mLang S263M-Y268S compared to WT (mLang S263M-Y268S; mutant vs WT): 3 fold; fold higher affinity for hLang compared to mLang ([2]; hLang vs mLang wild type): more than 10 fold
1140 ± 60 | 110 ± 40 |  |  | O=C(NCCc1cn2c(n1)SCC2)c1cnc2sccn2c1=O [Compound 3] | 
400 ± 140 | 900 ± 300 |  |  | Cc1sc2ncc(C(=O)O)c(=O)n2c1C [Compound 4] | 
610 ± 110 |  | micromolar affinity | no detectable binding and nb | Cc1csc2ncc(C(=O)O)c(=O)n12 [Compound 5] | 
230 ± 60 |  | micromolar affinity | no detectable binding and nb | COc1cc2c(cc1OC)CC(NC(=O)c1cnc3sccn3c1=O)C2 [Compound 6] | 
